Results published in ChEMBL document CHEMBL5143591, “Human Neuraminidases: Structures and Stereoselective Inhibitors” (J Med Chem, 2022).

Assays:
Sialidase-4 = target: T1, Sialidase-4 (Homo sapiens, UniProt Q8WWR8); experiment: Inhibition of human NEU4
T1 sequence (Q8WWR8 whole entry): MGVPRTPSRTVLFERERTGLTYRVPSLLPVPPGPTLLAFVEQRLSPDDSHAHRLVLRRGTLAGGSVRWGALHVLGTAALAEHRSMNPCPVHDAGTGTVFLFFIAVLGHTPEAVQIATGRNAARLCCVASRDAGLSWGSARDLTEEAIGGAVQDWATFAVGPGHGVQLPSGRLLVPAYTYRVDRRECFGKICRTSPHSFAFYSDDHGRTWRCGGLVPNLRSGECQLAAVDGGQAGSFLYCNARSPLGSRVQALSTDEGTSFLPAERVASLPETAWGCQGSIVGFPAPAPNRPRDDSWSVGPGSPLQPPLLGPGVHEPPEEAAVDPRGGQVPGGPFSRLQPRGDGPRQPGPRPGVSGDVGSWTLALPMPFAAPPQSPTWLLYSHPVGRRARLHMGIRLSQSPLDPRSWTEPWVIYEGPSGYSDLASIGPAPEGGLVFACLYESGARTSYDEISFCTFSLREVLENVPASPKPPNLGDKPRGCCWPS

Sialidase-3 = target: T2, Sialidase-3 (Homo sapiens, UniProt Q9UQ49); experiment: Inhibition of human NEU3
T2 sequence (Q9UQ49 whole entry): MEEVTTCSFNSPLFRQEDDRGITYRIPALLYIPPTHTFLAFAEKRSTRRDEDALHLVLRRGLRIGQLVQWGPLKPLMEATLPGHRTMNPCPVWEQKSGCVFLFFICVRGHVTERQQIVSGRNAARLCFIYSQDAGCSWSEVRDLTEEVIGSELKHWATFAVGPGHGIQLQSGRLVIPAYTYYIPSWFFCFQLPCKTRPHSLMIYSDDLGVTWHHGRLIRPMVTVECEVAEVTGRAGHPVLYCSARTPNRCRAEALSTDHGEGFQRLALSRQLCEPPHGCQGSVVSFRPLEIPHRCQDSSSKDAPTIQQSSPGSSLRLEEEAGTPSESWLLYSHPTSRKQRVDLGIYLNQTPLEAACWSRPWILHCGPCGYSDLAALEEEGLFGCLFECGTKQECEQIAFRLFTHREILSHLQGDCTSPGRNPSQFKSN

Sialidase-1 = Sialidase-1 (Homo sapiens, UniProt Q99519); experiment: Inhibition of human NEU1

Measured: IC50

CC(=O)N[C@H]1[C@H]([C@H](O)[C@H](O)CO)O[C@](O)(C(=O)O)C[C@@H]1O
> 500 µM: Sialidase-4 | Sialidase-3 | Sialidase-1
